From patent publication US20260297070A1, “CYCLIC [COMPOUND LEFT OUT] WRN INHIBITORS” (Nimbus Wadjet, Inc., priority 2023, published 2026)

What follows are compounds tested against T1, human Werner helicase (WRN-BV08, Uniprot Q14191, amino acids 517-1235 with L1074F point mutation) (Homo sapiens, UniProt Q14191, L1074F) (assay: WRN (BV08) ADP-Glo Assay). Settings: 0.15 nM WRN, 5 μM ATP, 0.1 nM DNA duplex, 15 min preincubation, 60 min at 25° C., pH 7.5, 1% DMSO; read-out: ADP-Glo_hWRN_IC50.
T1 construct: Uniprot Q14191, amino acids 517-1235 with L1074F point mutation; TEV-cleavable 8×His (C, cleaved yes); made in house; host or cells: Sf9 insect cells (baculovirus)
T1 sequence (Q14191 with tags, fused parts or gaps L1074F limits assumed): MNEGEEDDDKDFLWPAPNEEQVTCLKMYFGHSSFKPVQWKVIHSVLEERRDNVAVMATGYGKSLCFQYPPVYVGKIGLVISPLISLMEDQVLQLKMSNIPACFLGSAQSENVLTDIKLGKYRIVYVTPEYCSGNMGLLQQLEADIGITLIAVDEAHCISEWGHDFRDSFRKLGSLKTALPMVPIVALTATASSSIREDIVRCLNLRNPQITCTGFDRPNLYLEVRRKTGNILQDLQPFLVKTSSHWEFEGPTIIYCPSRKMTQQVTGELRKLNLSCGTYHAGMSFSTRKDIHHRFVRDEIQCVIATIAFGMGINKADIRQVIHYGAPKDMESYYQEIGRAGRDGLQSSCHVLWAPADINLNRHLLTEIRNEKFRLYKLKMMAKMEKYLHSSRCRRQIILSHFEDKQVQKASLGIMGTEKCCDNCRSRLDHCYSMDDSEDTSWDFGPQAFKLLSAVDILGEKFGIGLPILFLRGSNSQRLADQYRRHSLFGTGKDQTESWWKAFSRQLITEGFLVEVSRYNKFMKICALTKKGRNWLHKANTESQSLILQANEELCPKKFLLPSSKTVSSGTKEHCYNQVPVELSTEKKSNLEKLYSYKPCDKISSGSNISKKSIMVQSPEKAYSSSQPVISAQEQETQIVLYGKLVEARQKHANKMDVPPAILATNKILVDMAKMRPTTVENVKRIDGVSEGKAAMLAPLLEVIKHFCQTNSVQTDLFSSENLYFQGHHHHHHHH
Assay type: biochemical
Outline: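 ADP-Glo luminescence read-out of ATP hydrolysis. Conditions: 0.15 nM WRN, 5 μM ATP, 0.1 nM DNA duplex, 1% DMSO, 60 min at 25 °C after 15 min compound preincubation. Max/min controls were DMSO and 20 μM NSC-617145; IC50 from four-parameter fit.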

Row | Compound | IC50 [µM]
1 | O=C(C(c1ccc(-c2ccc(F)cc2)cc1)N1CCCC1=O)N(Cc1ccncc1)C1C=CS(=O)(=O)C1 (stereo not shown) [I-328, N-(1,1-dioxo-2,3-dihydro-1lambda6-thiophen-3-yl)-2-{4′-fluoro-[1,1′-biphenyl]-4-yl}-2-(2-oxopyrrolidin-1-yl)-N-[(pyridin-4-yl)methyl]acetamide] | 10 to 50
2 | O=C(Cc1ccc(OC(F)F)cc1)N(Cc1ccncc1)C1C=CS(=O)(=O)C1 (stereo not shown) [I-331, 2-[4-(difluoromethoxy)phenyl]-N-(1,1-dioxo-2,3-dihydro-1lambda6-thiophen-3-yl)-N-[(pyridin-4-yl)methyl]acetamide] | 10 to 50
3 | Cc1cccc(-c2nc(CC(=O)N(Cc3ccncc3)C3C=CS(=O)(=O)C3)cs2)c1 (stereo not shown) [I-333, N-(1,1-dioxo-2,3-dihydro-1lambda6-thiophen-3-yl)-2-[2-(3-methylphenyl)-1,3-thiazol-4-yl]-N-[(pyridin-4-yl)methyl]acetamide] | > 50
4 | O=C(Cc1ccc(-c2ccc(F)cc2C(F)F)cc1)N(Cc1ccncc1)C1C=CS(=O)(=O)C1 (stereo not shown) [I-334, 2-[2′-(difluoromethyl)-4′-fluoro-[1,1′-biphenyl]-4-yl]-N-(1,1-dioxo-2,3-dihydro-1lambda6-thiophen-3-yl)-N-[(pyridin-4-yl)methyl]acetamide] | 10 to 50
5 | Cc1nc(CN(C(=O)Cc2ccc(-n3cccc3)cc2)C2C=CS(=O)(=O)C2)cs1 (stereo not shown) [I-335, N-(1,1-dioxo-2,3-dihydro-1lambda6-thiophen-3-yl)-N-[(2-methyl-1,3-thiazol-4-yl)methyl]-2-[4-(1H-pyrrol-1-yl)phenyl]acetamide] | 10 to 50
6 | COC(C(=O)N(Cc1ccccc1)C1C=CS(=O)(=O)C1)c1ccc(-n2cccc2)cc1 (stereo not shown) [I-337, N-benzyl-N-(1,1-dioxo-2,3-dihydro-1lambda6-thiophen-3-yl)-2-methoxy-2-[4-(1H-pyrrol-1-yl)phenyl]acetamide] | 10 to 50
7 | O=C(Cc1ccc(-c2cccs2)cc1)N(Cc1ccncc1)C1C=CS(=O)(=O)C1 (stereo not shown) [I-338, N-(1,1-dioxo-2,3-dihydro-1lambda6-thiophen-3-yl)-N-[(pyridin-4-yl)methyl]-2-[4-(thiophen-2-yl)phenyl]acetamide] | 10 to 50
8 | CSc1ccc(CC(=O)N(Cc2ccncc2)C2C=CS(=O)(=O)C2)cc1 (stereo not shown) [I-339, N-(1,1-dioxo-2,3-dihydro-1lambda6-thiophen-3-yl)-2-[4-(methylsulfanyl)phenyl]-N-[(pyridin-4-yl)methyl]acetamide] | 10 to 50
9 | O=C(Cc1ccc(-c2ccccc2)cn1)N(Cc1ccccc1)C1C=CS(=O)(=O)C1 (stereo not shown) [I-341, N-benzyl-N-(1,1-dioxo-2,3-dihydro-1lambda6-thiophen-3-yl)-2-(5-phenylpyridin-2-yl)acetamide] | 10 to 50
10 | O=C(Cc1ccc(-n2cccc2)cc1)N(Cc1noc(C2CC2)n1)C1C=CS(=O)(=O)C1 (stereo not shown) [I-342, N-[(5-cyclopropyl-1,2,4-oxadiazol-3-yl)methyl]-N-(1,1-dioxo-2,3-dihydro-1lambda6-thiophen-3-yl)-2-[4-(1H-pyrrol-1-yl)phenyl]acetamide] | 10 to 50
11 | COc1cc(CN(C(=O)CCc2ccc(S(F)(F)(F)(F)F)cc2)C2C=CS(=O)(=O)C2)ccn1 (stereo not shown) [I-343, N-(1,1-dioxo-2,3-dihydro-1lambda6-thiophen-3-yl)-N-[(2-methoxypyridin-4-yl)methyl]-3-[4-(pentafluoro-lambda6-sulfanyl)phenyl]propanamide] | 10 to 50
12 | CS(=O)(=O)Nc1cccc(CN(C(=O)Cc2ccc(-n3cccc3)cc2)C2C=CS(=O)(=O)C2)c1 (stereo not shown) [I-344, N-(1,1-dioxo-2,3-dihydro-1lambda6-thiophen-3-yl)-N-[(3-methanesulfonamidophenyl)methyl]-2-[4-(1H-pyrrol-1-yl)phenyl]acetamide] | 10 to 50
13 | COc1cc(-c2ccc(F)cc2)ccc1CC(=O)N(Cc1ccncc1)C1C=CS(=O)(=O)C1 (stereo not shown) [I-345, N-(1,1-dioxo-2,3-dihydro-1lambda6-thiophen-3-yl)-2-{4′-fluoro-3-methoxy-[1,1′-biphenyl]-4-yl}-N-[(pyridin-4-yl)methyl]acetamide] | 10 to 50
14 | O=C(Cc1ccc(C23CC(C2)C3)cc1)N(Cc1ccncc1)C1C=CS(=O)(=O)C1 (stereo not shown) [I-347, 2-(4-{bicyclo[1.1.1]pentan-1-yl}phenyl)-N-(1,1-dioxo-2,3-dihydro-1lambda6-thiophen-3-yl)-N-[(pyridin-4-yl)methyl]acetamide] | 10 to 50
15 | N#Cc1cc(F)ccc1-c1ccc(CC(=O)N(Cc2ccncc2)C2C=CS(=O)(=O)C2)cc1 (stereo not shown) [I-348, 2-{2′-cyano-4′-fluoro-[1,1′-biphenyl]-4-yl}-N-(1,1-dioxo-2,3-dihydro-1lambda6-thiophen-3-yl)-N-[(pyridin-4-yl)methyl]acetamide] | 10 to 50
16 | O=C(Cn1nc(-c2ccc(F)cc2)oc1=O)N(Cc1ccncc1)C1C=CS(=O)(=O)C1 (stereo not shown) [I-349, N-(1,1-dioxo-2,3-dihydro-1lambda6-thiophen-3-yl)-2-[5-(4-fluorophenyl)-2-oxo-2,3-dihydro-1,3,4-oxadiazol-3-yl]-N-[(pyridin-4-yl)methyl]acetamide] | 10 to 50

Row | Compound | IC50 [µM]
17 | O=C(Cc1ccc(-c2ccc(F)cc2)cc1CO)N(Cc1ccncc1)C1C=CS(=O)(=O)C1 (stereo not shown) [I-350, N-(1,1-dioxo-2,3-dihydro-1lambda6-thiophen-3-yl)-2-[4′-fluoro-3-(hydroxymethyl)-[1,1′-biphenyl]-4-yl]-N-[(pyridin-4-yl)methyl]acetamide] | 10 to 50
18 | O=C(Cc1ccc(S(=O)(=O)C(F)F)cc1)N(Cc1ccncc1)C1C=CS(=O)(=O)C1 (stereo not shown) [I-351, 2-(4-difluoromethanesulfonylphenyl)-N-(1,1-dioxo-2,3-dihydro-1lambda6-thiophen-3-yl)-N-[(pyridin-4-yl)methyl]acetamide] | 10 to 50
19 | O=C(O)c1cccc(CN(C(=O)Cc2ccc(-n3cccc3)cc2)C2C=CS(=O)(=O)C2)c1 (stereo not shown) [I-352, 3-{[N-(1,1-dioxo-2,3-dihydro-1lambda6-thiophen-3-yl)-2-[4-(1H-pyrrol-1-yl)phenyl]acetamido]methyl}benzoic acid] | 10 to 50
20 | O=C(Cc1cc(-c2ccccc2)on1)N(Cc1ccncc1)C1C=CS(=O)(=O)C1 (stereo not shown) [I-354, N-(1,1-dioxo-2,3-dihydro-1lambda6-thiophen-3-yl)-2-(5-phenyl-1,2-oxazol-3-yl)-N-[(pyridin-4-yl)methyl]acetamide] | 10 to 50
21 | Cc1ccn(-c2ccc(CC(=O)N(Cc3ccncc3)C3C=CS(=O)(=O)C3)cc2)c1 (stereo not shown) [I-355, N-(1,1-dioxo-2,3-dihydro-1lambda6-thiophen-3-yl)-2-[4-(3-methyl-1H-pyrrol-1-yl)phenyl]-N-[(pyridin-4-yl)methyl]acetamide] | 10 to 50
22 | COC(C(=O)N(Cc1ccncc1)C1C=CS(=O)(=O)C1)c1ccc(-c2ccc(C)cc2)cc1 (stereo not shown) [I-356, N-(1,1-dioxo-2,3-dihydro-1lambda6-thiophen-3-yl)-2-methoxy-2-{4′-methyl-[1,1′-biphenyl]-4-yl}-N-[(pyridin-4-yl)methyl]acetamide] | 10 to 50
23 | COCC(C(=O)N(Cc1ccnc(OC)c1)C1C=CS(=O)(=O)C1)n1cc(-c2ccccc2)cn1 (stereo not shown) [I-357, N-(1,1-dioxo-2,3-dihydro-1lambda6-thiophen-3-yl)-3-methoxy-N-[(2-methoxypyridin-4-yl)methyl]-2-(4-phenyl-1H-pyrazol-1-yl)propanamide] | 10 to 50
24 | O=C(Cc1ccc(-n2cccc2)cc1)N(Cc1cccnc1)C1C=CS(=O)(=O)C1 (stereo not shown) [I-358, N-(1,1-dioxo-2,3-dihydro-1lambda6-thiophen-3-yl)-N-[(pyridin-3-yl)methyl]-2-[4-(1H-pyrrol-1-yl)phenyl]acetamide] | 10 to 50
25 | O=C(Cc1ccc(C2CC(F)(F)C2)cc1)N(Cc1ccncc1)C1C=CS(=O)(=O)C1 (stereo not shown) [I-359, 2-[4-(3,3-difluorocyclobutyl)phenyl]-N-(1,1-dioxo-2,3-dihydro-1lambda6-thiophen-3-yl)-N-[(pyridin-4-yl)methyl]acetamide] | 10 to 50
26 | O=C(Cc1ccc(-n2cccc2)cc1)N(Cc1ccccc1CO)C1C=CS(=O)(=O)C1 (stereo not shown) [I-360, N-(1,1-dioxo-2,3-dihydro-1lambda6-thiophen-3-yl)-N-{[2-(hydroxymethyl)phenyl]methyl}-2-[4-(1H-pyrrol-1-yl)phenyl]acetamide] | 10 to 50
27 | O=C(Cc1ccc(-n2cccc2)cc1)N(Cc1ccc2nccn2c1)C1C=CS(=O)(=O)C1 (stereo not shown) [I-361, N-(1,1-dioxo-2,3-dihydro-1lambda6-thiophen-3-yl)-N-({imidazo[1,2-a]pyridin-6-yl}methyl)-2-[4-(1H-pyrrol-1-yl)phenyl]acetamide] | 10 to 50
28 | COc1cc(CN(C(=O)Cc2ccc(-c3cscn3)cc2F)C2C=CS(=O)(=O)C2)ccn1 (stereo not shown) [I-363, N-(1,1-dioxo-2,3-dihydro-1lambda6-thiophen-3-yl)-2-[2-fluoro-4-(1,3-thiazol-4-yl)phenyl]-N-[(2-methoxypyridin-4-yl)methyl]acetamide] | 10 to 50
29 | Cc1cccn1-c1ccc(CC(=O)N(Cc2cncnc2)C2C=CS(=O)(=O)C2)c(F)c1 (stereo not shown) [I-364, N-(1,1-dioxo-2,3-dihydro-1lambda6-thiophen-3-yl)-2-[2-fluoro-4-(2-methyl-1H-pyrrol-1-yl)phenyl]-N-[(pyrimidin-5-yl)methyl]acetamide] | 10 to 50
30 | CC(C)Oc1ccc(CC(=O)N(Cc2ccncc2)C2C=CS(=O)(=O)C2)cc1 (stereo not shown) [I-365, N-(1,1-dioxo-2,3-dihydro-1lambda6-thiophen-3-yl)-2-[4-(propan-2-yloxy)phenyl]-N-[(pyridin-4-yl)methyl]acetamide] | 10 to 50
31 | O=C(Cc1ccc(C(F)(F)F)nc1)N(Cc1ccncc1)C1C=CS(=O)(=O)C1 (stereo not shown) [I-367, N-(1,1-dioxo-2,3-dihydro-1lambda6-thiophen-3-yl)-N-[(pyridin-4-yl)methyl]-2-[6-(trifluoromethyl)pyridin-3-yl]acetamide] | 10 to 50
